Test results reported in paper PMC6210068 (ACS Omega, 2018).

Columns and labels:
DOR [1] = target: T1, DOR (Homo sapiens, UniProt P41143); assay: Radioligand binding at DOR
rat kidney TSPO = rat kidney TSPO (Rattus norvegicus, UniProt P16257); assay: Radioligand binding at TSPO; conditions: for Ki: TSPO, rat TSPO, [3H]PK11195
hDAT = hDAT (Homo sapiens, UniProt Q01959); assay: Radioligand binding at DAT; conditions: for DAT, inhibition, % of control at 10 μM: [3H]WIN35428, negative = enhanced radioligand binding
hA3AR = target: T2, hA3AR (Homo sapiens, UniProt P0DMS8); assay: A3AR binding
T2 sequence (P0DMS8 1-318): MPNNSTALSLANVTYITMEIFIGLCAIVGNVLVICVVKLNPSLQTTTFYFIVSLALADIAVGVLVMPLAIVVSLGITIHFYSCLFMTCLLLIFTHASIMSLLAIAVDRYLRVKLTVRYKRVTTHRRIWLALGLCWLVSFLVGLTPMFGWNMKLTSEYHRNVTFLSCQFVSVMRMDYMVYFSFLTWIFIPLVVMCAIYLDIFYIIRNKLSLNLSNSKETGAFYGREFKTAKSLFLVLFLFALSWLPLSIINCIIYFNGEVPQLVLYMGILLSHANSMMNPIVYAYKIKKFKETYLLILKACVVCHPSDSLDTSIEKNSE

mA3AR = target: T3, mA3AR (Mus musculus, UniProt Q61618); assay: Mouse A3AR binding
T3 sequence (Q61618 1-319): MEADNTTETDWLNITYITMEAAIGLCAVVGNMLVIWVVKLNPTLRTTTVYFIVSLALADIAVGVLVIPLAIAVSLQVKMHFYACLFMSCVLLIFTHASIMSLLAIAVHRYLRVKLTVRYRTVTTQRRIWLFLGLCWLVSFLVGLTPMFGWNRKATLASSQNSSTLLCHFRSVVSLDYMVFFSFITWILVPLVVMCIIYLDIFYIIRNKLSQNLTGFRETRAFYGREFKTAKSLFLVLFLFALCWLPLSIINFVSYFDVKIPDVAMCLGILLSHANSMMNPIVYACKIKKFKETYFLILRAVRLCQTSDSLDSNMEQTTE

hNOP = hNOP (Homo sapiens, UniProt P41146); assay: Radioligand binding at NOP
hA2AAR = hA2AAR (Homo sapiens, UniProt P29274); assay: hA2AAR binding; conditions: for inhibition at 10 µM: read-out: binding inhibition at hA2AAR (% at 10 μM)
rat σ2 receptor = target: T4, rat σ2 receptor (Rattus norvegicus, UniProt Q5U3Y7); assay: PDSP binding, σ2 receptor
T4 sequence (Q5U3Y7 1-176): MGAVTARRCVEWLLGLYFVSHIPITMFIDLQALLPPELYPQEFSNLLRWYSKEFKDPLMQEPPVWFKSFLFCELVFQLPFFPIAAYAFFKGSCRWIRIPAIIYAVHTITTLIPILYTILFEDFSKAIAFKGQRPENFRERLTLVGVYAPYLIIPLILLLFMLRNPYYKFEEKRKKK

hA1AR = target: T5, hA1AR (Homo sapiens, UniProt P30542); assay: hA1AR binding; conditions: read-out: binding inhibition at hA1AR (% at 10 μM)
T5 sequence (P30542 1-326): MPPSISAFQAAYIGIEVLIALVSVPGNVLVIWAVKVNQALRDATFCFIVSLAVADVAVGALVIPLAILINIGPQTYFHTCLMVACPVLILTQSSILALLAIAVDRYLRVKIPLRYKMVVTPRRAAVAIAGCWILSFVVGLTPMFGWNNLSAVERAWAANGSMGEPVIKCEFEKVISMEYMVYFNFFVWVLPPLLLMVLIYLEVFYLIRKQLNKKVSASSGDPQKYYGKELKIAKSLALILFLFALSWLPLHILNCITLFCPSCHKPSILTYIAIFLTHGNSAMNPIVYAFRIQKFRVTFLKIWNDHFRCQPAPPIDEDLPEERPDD

KOR [2] = target: T6, KOR (Homo sapiens, UniProt P41145); assay: biochemical; format: binding; conditions: for Ki: KOR, [3H]U69593, mean ± SEM, N = 2–4
DOR [3] = target: T1, DOR; assay: β-arrestin-recruitment TANGO assay at DOR; format: cell-based; conditions: 10 μM; for DOR Antag (%): vs naloxone 121 = 100% inhibition; for DOR Ag (%): vs standard agonist = 100%
KOR [4] = target: T6, KOR; assay: β-arrestin-recruitment TANGO assay at KOR; format: cell-based; conditions: 10 μM; vs naloxone 121 = 100% inhibition; agonist 109 (3 nM)
MOR [5] = target: T7, MOR (Homo sapiens, UniProt P35372); assay: β-arrestin-recruitment TANGO assay at MOR; format: cell-based; conditions: 10 μM; for MOR Antag (%): vs naloxone 121 = 100% inhibition, agonist 99 (300 nM); for MOR Ag (%): vs standard agonist = 100%
MOR [6] = target: T7, MOR; assay: biochemical; format: binding; conditions: for MOR, inhibition of radioligand binding at 10 μM (class): Table 2
KOR [7] = target: T6, KOR; format: cell-based; conditions: antagonism of 1 μM U69593 98

hNOP, sequence (P41146 whole entry): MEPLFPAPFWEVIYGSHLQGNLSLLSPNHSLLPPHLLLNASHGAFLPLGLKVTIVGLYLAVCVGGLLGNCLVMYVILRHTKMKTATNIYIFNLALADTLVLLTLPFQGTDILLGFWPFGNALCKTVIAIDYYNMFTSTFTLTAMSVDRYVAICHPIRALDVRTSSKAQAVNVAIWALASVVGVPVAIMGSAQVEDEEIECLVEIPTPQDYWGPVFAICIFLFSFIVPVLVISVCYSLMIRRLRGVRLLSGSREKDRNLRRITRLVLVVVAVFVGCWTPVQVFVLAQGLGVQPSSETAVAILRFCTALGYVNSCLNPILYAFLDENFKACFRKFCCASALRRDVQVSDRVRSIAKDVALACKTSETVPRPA
T7 sequence (P35372 whole entry): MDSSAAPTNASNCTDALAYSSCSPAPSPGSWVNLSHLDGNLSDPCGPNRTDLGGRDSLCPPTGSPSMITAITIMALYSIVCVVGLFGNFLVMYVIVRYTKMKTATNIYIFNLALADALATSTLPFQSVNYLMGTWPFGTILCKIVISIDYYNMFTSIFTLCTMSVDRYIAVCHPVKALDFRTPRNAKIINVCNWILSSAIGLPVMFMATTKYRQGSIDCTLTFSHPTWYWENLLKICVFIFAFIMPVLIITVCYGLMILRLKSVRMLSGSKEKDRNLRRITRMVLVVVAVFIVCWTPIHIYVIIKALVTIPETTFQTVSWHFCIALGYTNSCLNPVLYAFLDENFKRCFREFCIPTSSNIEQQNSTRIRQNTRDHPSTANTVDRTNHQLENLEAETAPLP
T1 sequence (P41143 whole entry): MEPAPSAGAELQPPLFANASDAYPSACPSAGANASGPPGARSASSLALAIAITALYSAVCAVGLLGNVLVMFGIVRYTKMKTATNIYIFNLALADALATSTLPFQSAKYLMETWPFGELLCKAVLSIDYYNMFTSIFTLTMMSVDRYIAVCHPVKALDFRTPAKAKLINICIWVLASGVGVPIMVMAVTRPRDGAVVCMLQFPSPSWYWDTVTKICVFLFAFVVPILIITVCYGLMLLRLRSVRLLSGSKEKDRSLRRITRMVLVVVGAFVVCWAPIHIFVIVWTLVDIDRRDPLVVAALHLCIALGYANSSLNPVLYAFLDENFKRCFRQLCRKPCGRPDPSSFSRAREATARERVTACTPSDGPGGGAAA
T6 sequence (P41145 whole entry): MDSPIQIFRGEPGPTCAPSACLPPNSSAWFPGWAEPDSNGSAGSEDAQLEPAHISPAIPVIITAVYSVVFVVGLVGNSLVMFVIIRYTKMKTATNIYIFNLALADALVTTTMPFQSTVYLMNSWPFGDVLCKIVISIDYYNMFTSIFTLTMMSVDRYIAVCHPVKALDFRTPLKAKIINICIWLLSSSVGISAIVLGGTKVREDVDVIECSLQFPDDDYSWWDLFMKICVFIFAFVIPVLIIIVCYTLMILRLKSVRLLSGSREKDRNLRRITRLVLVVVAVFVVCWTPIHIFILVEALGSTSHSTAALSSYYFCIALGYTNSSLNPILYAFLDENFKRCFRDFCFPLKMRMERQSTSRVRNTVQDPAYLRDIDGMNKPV
rat kidney TSPO, sequence (P16257 whole entry): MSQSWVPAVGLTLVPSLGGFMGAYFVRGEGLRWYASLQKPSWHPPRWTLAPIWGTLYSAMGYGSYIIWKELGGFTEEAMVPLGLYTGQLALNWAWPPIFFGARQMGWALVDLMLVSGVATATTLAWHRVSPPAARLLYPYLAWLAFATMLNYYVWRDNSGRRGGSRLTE
hA2AAR, sequence (P29274 whole entry): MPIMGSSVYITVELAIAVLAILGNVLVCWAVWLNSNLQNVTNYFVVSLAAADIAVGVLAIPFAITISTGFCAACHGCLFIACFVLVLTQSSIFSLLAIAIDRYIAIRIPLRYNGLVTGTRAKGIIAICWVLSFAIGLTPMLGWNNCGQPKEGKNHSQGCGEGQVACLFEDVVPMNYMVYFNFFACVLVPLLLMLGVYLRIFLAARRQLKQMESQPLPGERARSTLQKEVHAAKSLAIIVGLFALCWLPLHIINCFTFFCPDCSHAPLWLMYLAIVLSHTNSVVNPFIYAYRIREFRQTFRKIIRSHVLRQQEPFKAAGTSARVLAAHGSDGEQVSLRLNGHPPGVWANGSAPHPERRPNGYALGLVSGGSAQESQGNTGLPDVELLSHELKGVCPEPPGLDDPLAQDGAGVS
hDAT, sequence (Q01959 whole entry): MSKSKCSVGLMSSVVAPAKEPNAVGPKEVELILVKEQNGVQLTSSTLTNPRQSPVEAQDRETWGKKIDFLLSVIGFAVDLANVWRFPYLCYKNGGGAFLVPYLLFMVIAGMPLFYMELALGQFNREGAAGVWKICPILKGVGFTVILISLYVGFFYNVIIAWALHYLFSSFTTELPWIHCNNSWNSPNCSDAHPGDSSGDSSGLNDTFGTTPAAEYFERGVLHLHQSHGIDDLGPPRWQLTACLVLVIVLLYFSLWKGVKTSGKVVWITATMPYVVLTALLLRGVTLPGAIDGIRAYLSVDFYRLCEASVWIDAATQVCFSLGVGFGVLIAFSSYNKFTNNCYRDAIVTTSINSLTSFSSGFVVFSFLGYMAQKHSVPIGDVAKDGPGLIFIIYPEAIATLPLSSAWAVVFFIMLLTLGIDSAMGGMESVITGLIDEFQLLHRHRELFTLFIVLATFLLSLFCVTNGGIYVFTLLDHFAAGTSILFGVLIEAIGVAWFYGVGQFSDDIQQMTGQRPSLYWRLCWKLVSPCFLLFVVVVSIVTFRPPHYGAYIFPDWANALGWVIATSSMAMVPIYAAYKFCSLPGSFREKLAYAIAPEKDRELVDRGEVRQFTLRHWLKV

Row | SMILES | Ki (rat kidney TSPO) [nM] | DAT, inhibition, % of control at 10 μM (hDAT) | Ki (hA3AR) [nM] | Ki (mA3AR) [nM] | Ki (DOR [1]) [nM] | Ki (hNOP) [nM] | inhibition at 10 µM (hA1AR) [%] | inhibition at 10 µM (hA2AAR) [%] | Ki (KOR [2]) [nM] | DOR Antag (%) (DOR [3]) | DOR Ag (%) (DOR [3]) | KOR Antag (%) (KOR [4]) | MOR Antag (%) (MOR [5]) | MOR Ag (%) (MOR [5]) | Ki (MOR [6]) [nM] | further results
1 | CNC(=O)[C@@]12C[C@@H]1[C@@H](n1cnc3c(NCCCO)nc(C#Cc4ccc(Cl)s4)nc31)[C@H](O)[C@@H]2O [compound 20] | 6160 ± 50 | –107 ± 4% | 2.04 ± 1.46 | 105 |  |  |  |  |  |  |  |  |  |  |  | DOR, inhibition of radioligand binding at 10 μM (class) (DOR [1]; Table 1): ^e (30–50% inhibition of radioligand binding at 10 μM)
2 | O[C@@H]1[C@H](O)[C@@H]2C[C@@H]2[C@H]1n1cnc2c(NCc3cccc(Cl)c3)nc(C#Cc3ccccc3)nc21 [compound 47] | 1640 ± 160 | 37% |  | 299 | 8000 ± 1000 | > 10000 |  |  |  |  |  |  |  |  |  | Ki (hA2AAR): 670 nM; Ki (rat σ2 receptor): 2730 nM
3 | CNC(=O)[C@@]12C[C@@H]1[C@@H](n1cnc3c(NCCC(F)(F)F)nc(C#Cc4ccc(Cl)s4)nc31)[C@H](O)[C@@H]2O [compound 19] | 1300 ± 150 | 15% | 3.7 ± 1 | 71 |  |  | 46 | 21 |  |  |  |  |  |  |  | DOR, inhibition of radioligand binding at 10 μM (class) (DOR [1]; Table 1): ^e (30–50% inhibition of radioligand binding at 10 μM)
4 | CCCCC(=O)[C@@]12C[C@@H]1[C@@H](n1ccc3c(NC)nc(C#Cc4ccc(Cl)s4)nc31)[C@H](O)[C@@H]2O [compound 44] |  | –9% | 98 ± 30 |  |  | > 10000 |  |  | 2610 ± 660 | 20.3% | 6.7% | 65.5 | –44.4% | 6.0% |  | 
5 | CCOC(=O)[C@@]12C[C@@H]1[C@@H](n1cnc3c(NC)nc(C#Cc4ccc(Br)s4)nc31)[C@H](O)[C@@H]2O [compound 25] | 1520 ± 250 | –430% |  |  |  | > 10000 |  |  | 975 ± 198 | –6.0% | –1.7% | 88.1 | 22.6% | –1.2% |  | DOR, inhibition of radioligand binding at 10 μM (class) (DOR [1]; Table 2): ^c (30–50% inhibition of radioligand binding at 10 μM); MOR, inhibition of radioligand binding at 10 μM (class) (MOR [6]): ^c (30–50% inhibition of radioligand binding at 10 μM)
6 | CNC(=O)[C@@]12C[C@@H]1[C@@H](n1cnc3c(NCc4cccc(Cl)c4)nc(C#Cc4ccc(F)c(F)c4)nc31)[C@H](O)[C@@H]2O [compound 4] | ~300 | 16% |  |  | 2480 ± 790 | 4560 ± 450 |  |  |  | 25.3% | –10.3% | 125 | 18.8% | –1.6% |  | 
7 | CCOC(=O)[C@@]12C[C@@H]1[C@@H](n1ccc3c(NC)nc(C#Cc4ccc(Br)s4)nc31)[C@H](O)[C@@H]2O [compound 29, Ethyl(1S,2R,3S,4R,5S)-4-(2-((5-bromothiophen-2-yl)ethynyl)-4-(methylamino)-7H-pyrrolo[2,3-d]pyrimidin-7-yl)-2,3-dihydroxybicyclo[3.1.0]hexane-1-carboxylate] | 765 ± 118 | –102 ± 8 (3) % | 466 ± 20 |  | 437 ± 94 | 2760 ± 670 |  |  | 39 ± 1 | 93.2% | –1.1% | 104.5 | 96.9% | 1.6% | 368 ± 135 | preference for KOR in comparison to DOR (KOR [2]; ratio of Ki): 11 fold; preference for KOR in comparison to MOR (KOR [2]; ratio of Ki): 9 fold; preference for KOR in comparison to TSPO (KOR [2]; ratio of Ki): ~20 fold; EC50 (hDAT): > 1000 nM
8 | CCOC(=O)[C@@]12C[C@@H]1[C@@H](n1ccc3c(NC4CC4)nc(C#Cc4ccccc4)nc31)[C@H](O)[C@@H]2O [compound 41, Ethyl(1S,2R,3S,4R,5S)-4-(4-(cyclopropylamino)-2-(phenylethynyl)-7H-pyrrolo[2,3-d]pyrimidin-7-yl)-2,3-dihydroxybicyclo[3.1.0]hexane-1-carboxylate] |  | –312% | 228 ± 115 |  | 2400 ± 90 |  | 44 | 25 | 852 ± 137 |  |  |  |  |  | 2110 ± 590 | TSPO, inhibition of radioligand binding at 10 μM (class) (rat kidney TSPO; Table 2): ^c (30–50% inhibition of radioligand binding at 10 μM)
9 | CNC(=O)[C@@]12C[C@@H]1[C@@H](n1cnc3c(NC)nc(C#Cc4ccccc4Cl)nc31)[C@H](O)[C@@H]2O [compound 13] |  | –484% |  | 110 |  |  |  |  |  |  |  |  |  |  |  | DOR, inhibition of radioligand binding at 10 μM (class) (DOR [1]; Table 1): ^e (30–50% inhibition of radioligand binding at 10 μM); TSPO, inhibition of radioligand binding at 10 μM (class) (rat kidney TSPO; Table 1): ^e (30–50% inhibition of radioligand binding at 10 μM)
10 | CCOC(=O)[C@@]12C[C@@H]1[C@@H](n1ccc3c(NC)nc(C#Cc4ccccc4)nc31)[C@H](O)[C@@H]2O [compound 40, Ethyl(1S,2R,3S,4R,5S)-2,3-dihydroxy-4-(4-(methylamino)-2-(phenylethynyl)-7H-pyrrolo[2,3-d]pyrimidin-7-yl)bicyclo[3.1.0]hexane-1-carboxylate] | > 10000 | –66% | 344 ± 40 |  | 1780 ± 410 |  | 35 | 22 | 91.5 ± 23.7 |  |  |  |  |  | 1480 ± 450 | βarrestin2 recruitment, Imax (% 120) (KOR [7]): 76 ± 2 % 120
11 | CCOC(=O)[C@@]12C[C@@H]1[C@@H](n1ccc3c(NCC4CC4)nc(C#Cc4ccccc4)nc31)[C@H](O)[C@@H]2O [compound 42, Ethyl(1S,2R,3S,4R,5S)-4-(4-((cyclopropylmethyl)amino)-2-(phenylethynyl)-7H-pyrrolo[2,3-d]pyrimidin-7-yl)-2,3-dihydroxybicyclo[3.1.0]hexane-1-carboxylate] | 4470 ± 1330 | –13% | 791 ± 433 |  |  |  | 34 | 20 | 1400 ± 210 |  |  |  |  |  | 1300 ± 530 | DOR, inhibition of radioligand binding at 10 μM (class) (DOR [1]; Table 2): ^c (30–50% inhibition of radioligand binding at 10 μM); Ki (rat σ2 receptor): 1110 nM
12 | CNc1nc(C#Cc2ccc(Cl)s2)nc2c1ncn2[C@H]1[C@H](O)[C@H](O)[C@]2(C(=O)OCc3ccccc3)C[C@H]12 [compound 35] | 4050 ± 740 | <20% | 7.81 ± 2.4 | 891 |  |  |  |  | 629 ± 183 | 14.1% | –1.9% | 112.9 | 82.1% | 3.1% |  | DOR, inhibition of radioligand binding at 10 μM (class) (DOR [1]; Table 2): ^d (<30% inhibition of radioligand binding at 10 μM); MOR, inhibition of radioligand binding at 10 μM (class) (MOR [6]): ^c (30–50% inhibition of radioligand binding at 10 μM)
